Measurements reported in US20250051363A1, “Substituted Pyrazolopyridines” (Neuro3 Therapeutics, Inc., priority 2023, published 2025).
Where a name gives a salt, the structure may show the parent alone.

biological target: LRRK2 wild-type (Homo sapiens (Human), UniProt Q5S007); assay: LanthaScreen LRRK2 Biochemical Activity Assay; conditions: human recombinant LRRK2 (amino acids 970-2527) wild-type, ATP 57 μM, TR-FRET; read-out: IC50 (nM), inhibition of LRRK2 wild-type kinase activity
Method: The ability of a compound of Formula (I) to inhibit LRRK2 kinase activity is measured using a LanthaScreen™ kinase activity assay. In general, in a LanthaScreen™ kinase activity assay, kinase, fluorescein-labeled substrate, and ATP are allowed to react. Then EDTA (to stop the reaction) and terbium-labeled antibody (to detect phosphorylated product) are added. In a LanthaScreen™ kinase reaction, the antibody associates with the phosphorylated fluorescein labeled substrate resulting in an increased TR-FRET value. The TR-FRET value is a dimensionless number that is calculated as the ratio of the acceptor (fluorescein) signal to the donor (terbium) signal. The amount of antibody that is bound to the tracer is directly proportional to the amount of phosphorylated substrate present, and in this manner, kinase activity can be detected and measured by an increase in the TR-FRET value. Accordingly, in this Example, enzyme reactions are carried out in a kinase reaction buffer in the presence or absence of representative compounds of Formula (I) at various concentrations in 384-well plate at room temperature for 60 minutes. The kinase reaction buffer contains human recombinant LRRK2 protein (amino acids 970-2527, 5 nM), ATP (57 μM for LRRK2 wild-type, 134 μM for G2019S mutant protein), Fluorescein-LRRKtide substrate (0.4 mM), 50 mM Tris pH 7.5, 10 mM MgCl2, 1 mM EGTA, 0.01% Brij™-35, and 2 mM DTT. The final reaction volume for each reaction is 10 μL. The reactions are initated by adding the substrate and stopped by the addition of 10 μL of a TR-FRET dilution buffer supplemented with a kinase quench buffer (10 mM EDTA final) and Tb-anti-pLRRKtide (2 nM final). The plate is further incubated at room temperature for another 60 minutes, and the fluorescent signals are read on an EnVision® multilabel plate reader (PerkinElmer, Waltham, MA) with excitation at 340 nm and emission at 495 and 520 nm. The assay signal is determined as a ratio of FRET-specific signal measured with emission filter at 520 nm to that of the signal measured with Tb-specific emission filter at 495 nm. IC50 values for compound-mediated enzyme inhibition are calculated using appropriate programs in GraphPad Prism software by plotting the logarithm of the compound concentrations versus percent inhibition. All reagents are purchased from Thermo Fisher Scientific.

Chain of LRRK2 wild-type (Q5S007 970-2527): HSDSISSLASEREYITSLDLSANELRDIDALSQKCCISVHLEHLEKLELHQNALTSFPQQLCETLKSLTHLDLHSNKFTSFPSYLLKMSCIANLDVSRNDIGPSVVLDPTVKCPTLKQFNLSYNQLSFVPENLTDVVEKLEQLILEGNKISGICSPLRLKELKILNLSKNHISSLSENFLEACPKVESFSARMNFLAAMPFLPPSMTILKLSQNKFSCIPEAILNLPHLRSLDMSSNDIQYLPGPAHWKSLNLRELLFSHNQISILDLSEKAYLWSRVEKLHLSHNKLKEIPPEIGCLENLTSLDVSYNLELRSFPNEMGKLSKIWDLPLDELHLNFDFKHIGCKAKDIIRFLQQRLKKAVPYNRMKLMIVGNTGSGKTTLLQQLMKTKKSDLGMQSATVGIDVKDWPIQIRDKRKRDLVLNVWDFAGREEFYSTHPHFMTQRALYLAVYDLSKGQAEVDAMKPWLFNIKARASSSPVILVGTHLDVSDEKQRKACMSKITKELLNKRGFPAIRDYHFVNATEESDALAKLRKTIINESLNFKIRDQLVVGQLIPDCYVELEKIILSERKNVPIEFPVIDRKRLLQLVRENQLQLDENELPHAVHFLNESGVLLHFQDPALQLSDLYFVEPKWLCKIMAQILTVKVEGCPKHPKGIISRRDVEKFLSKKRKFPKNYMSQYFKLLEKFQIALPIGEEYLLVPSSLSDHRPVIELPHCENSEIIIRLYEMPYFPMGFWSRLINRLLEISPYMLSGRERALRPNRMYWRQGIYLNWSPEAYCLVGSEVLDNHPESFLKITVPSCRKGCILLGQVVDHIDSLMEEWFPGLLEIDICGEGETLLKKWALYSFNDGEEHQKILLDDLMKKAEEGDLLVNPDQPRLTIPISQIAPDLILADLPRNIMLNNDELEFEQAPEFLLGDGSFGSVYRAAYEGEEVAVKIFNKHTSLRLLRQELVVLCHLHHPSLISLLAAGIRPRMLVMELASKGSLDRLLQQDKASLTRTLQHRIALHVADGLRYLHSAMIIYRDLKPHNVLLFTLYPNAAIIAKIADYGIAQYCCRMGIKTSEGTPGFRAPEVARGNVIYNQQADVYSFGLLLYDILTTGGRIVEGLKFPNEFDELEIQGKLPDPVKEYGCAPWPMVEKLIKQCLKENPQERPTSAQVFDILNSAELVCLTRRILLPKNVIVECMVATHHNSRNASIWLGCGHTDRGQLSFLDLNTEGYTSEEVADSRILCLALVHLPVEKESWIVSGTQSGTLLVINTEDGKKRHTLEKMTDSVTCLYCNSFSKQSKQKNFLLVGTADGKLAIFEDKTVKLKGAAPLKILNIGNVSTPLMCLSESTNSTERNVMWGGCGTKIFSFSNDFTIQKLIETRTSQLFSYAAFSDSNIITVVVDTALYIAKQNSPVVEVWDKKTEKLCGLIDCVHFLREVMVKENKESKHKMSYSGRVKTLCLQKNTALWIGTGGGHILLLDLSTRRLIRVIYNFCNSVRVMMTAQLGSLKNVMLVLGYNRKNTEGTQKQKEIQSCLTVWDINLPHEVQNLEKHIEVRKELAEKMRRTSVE

| Structure (SMILES) | IC50 |
| --- | --- |
| CNc1ccn2ncc(-c3cc(Cl)cc(N4C[C@@H](C)N[C@@H](C)C4)n3)c2c1 [Example 54, 3-[4-chloro-6-[(3S,5R)-3,5-dimethylpiperazin-1-yl]-2-pyridyl]-N-methyl-pyrazolo[1,5-a]pyridin-5-amine] | 11 to 100 nM |
| C[C@@H]1CN(c2cccc(-c3cnn4ccc(C(F)(F)F)cc34)n2)C[C@H](C)N1 [Example 55, 3-[6-[(3S,5R)-3,5-dimethylpiperazin-1-yl]-2-pyridyl]-5-(trifluoromethyl)pyrazolo[1,5-a]pyridine] | ≤ 10 nM |
| C[C@@H]1CN(c2cc(Cl)cc(-c3cnn4ccc(C(F)(F)F)cc34)n2)C[C@H](C)N1 [Example 56, 3-[4-chloro-6-[(3S,5R)-3,5-dimethylpiperazin-1-yl]-2-pyridyl]-5-(trifluoromethyl)pyrazolo[1,5-a]pyridine] | ≤ 10 nM |
| C[C@@H]1CN(c2cccc(-c3cnn4ccc(Cl)cc34)n2)C[C@H](C)N1 [Example 57, 5-chloro-3-[6-[(3R,5S)-3,5-dimethylpiperazin-1-yl]-2-pyridyl]pyrazolo[1,5-a]pyridine] | ≤ 10 nM |
| C[C@@H]1CN(c2cc(F)cc(-c3cnn4ccc(Cl)cc34)n2)C[C@H](C)N1 [Example 58, 5-chloro-3-[6-[(3R,5S)-3,5-dimethylpiperazin-1-yl]-4-fluoro-2-pyridyl]pyrazolo[1,5-a]pyridine] | ≤ 10 nM |
| C[C@@H]1CN(c2cc(Cl)cc(-c3cnn4ccc(Cl)cc34)n2)C[C@H](C)N1 [Example 59, 5-chloro-3-[4-chloro-6-[(3S,5R)-3,5-dimethylpiperazin-1-yl]-2-pyridyl]pyrazolo[1,5-a]pyridine] | ≤ 10 nM |
| C[C@@H]1CN(c2nc(-c3cnn4ccc(Cl)cc34)ccc2Cl)C[C@H](C)N1 [Example 60, 5-chloro-3-[5-chloro-6-[(3S,5R)-3,5-dimethylpiperazin-1-yl]-2-pyridyl]pyrazolo[1,5-a]pyridine] | 101 to 400 nM |
| C[C@@H]1CN(c2nc(-c3cnn4ccc(Cl)cc34)ccc2F)C[C@H](C)N1 [Example 61, 5-chloro-3-[6-[(3S,5R)-3,5-dimethylpiperazin-1-yl]-5-fluoro-2-pyridyl]pyrazolo[1,5-a]pyridine] | ≤ 10 nM |
| CNc1ccn2ncc(-c3cc(Cl)cc(C4CCCNC4)n3)c2c1 (stereo not shown) [Example 62, 3-[4-chloro-6-(3-piperidyl)-2-pyridyl]-N-methyl-pyrazolo[1,5-a]pyridin-5-amine] | 11 to 100 nM |
| C[C@@H]1CN(c2ccc(Cl)c(-c3cnn4ccc(Cl)cc34)n2)C[C@H](C)N1 [Example 63, 5-chloro-3-[3-chloro-6-[(3S,5R)-3,5-dimethylpiperazin-1-yl]-2-pyridyl]pyrazolo[1,5-a]pyridine] | ≤ 10 nM |
| C[C@@H]1CN(c2ccc(F)c(-c3cnn4ccc(Cl)cc34)n2)C[C@H](C)N1 [Example 64, 5-chloro-3-[6-[(3S,5R)-3,5-dimethylpiperazin-1-yl]-3-fluoro-2-pyridyl]pyrazolo[1,5-a]pyridine] | 11 to 100 nM |
| CC(C)Oc1ccn2ncc(-c3cc(Cl)cc(C4CCCNC4)n3)c2c1 (stereo not shown) [Example 65, 3-[4-chloro-6-(3-piperidyl)-2-pyridyl]-5-isopropoxy-pyrazolo[1,5-a]pyridine] | ≤ 10 nM |
| CC1(C)CN(c2cccc(-c3cnn4ccc(Cl)cc34)n2)CC(C)(C)N1 [Example 66, 5-chloro-3-[6-(3,3,5,5-tetramethylpiperazin-1-yl)-2-pyridyl]pyrazolo[1,5-a]pyridine] | ≤ 10 nM |
| CS(=O)(=O)CC(=O)Nc1ccn2ncc(-c3cccc(C4CCCNC4)n3)c2c1 (stereo not shown) [Example 67, 2-(methylsulfonyl)-N-(3-(6-(piperidin-3-yl)pyridin-2-yl)pyrazolo[1,5-a]pyridin-5-yl)acetamide] | 11 to 100 nM |
| CS(=O)(=O)NCC(=O)Nc1ccn2ncc(-c3cccc(C4CCCNC4)n3)c2c1 (stereo not shown) [Example 68, 2-(methylsulfonamido)-N-(3-(6-(piperidin-3-yl)pyridin-2-yl)pyrazolo[1,5-a]pyridin-5-yl)acetamide] | 11 to 100 nM |
| C[C@@H]1CN(c2cccc(-c3cnn4ccccc34)n2)CCN1 [Example 69, (R)-3-(6-(3-methylpiperazin-1-yl)pyridin-2-yl)pyrazolo[1,5-a]pyridine formate] | 11 to 100 nM |
| C[C@H]1CN(c2cccc(-c3cnn4ccccc34)n2)CCN1 [Example 70, (S)-3-(6-(3-methylpiperazin-1-yl)pyridin-2-yl)pyrazolo[1,5-a]pyridine formate] | 11 to 100 nM |
| C[C@@H]1CN(c2cccc(-c3cnn4ccc(Cl)cc34)n2)C[C@H](C)N1C [Example 71, 5-chloro-3-(6-((3S,5R)-3,4,5-trimethylpiperazin-1-yl)pyridin-2-yl)pyrazolo[1,5-a]pyridine] | 11 to 100 nM |
| O=C(Nc1ccn2ncc(-c3cccc(C4CCCNC4)n3)c2c1)c1ccccn1 (stereo not shown) [Example 72, N-(3-(6-(piperidin-3-yl)pyridin-2-yl)pyrazolo[1,5-a]pyridin-5-yl)picolinamide] | 11 to 100 nM |
| O=C(COc1ccccn1)Nc1ccn2ncc(-c3cccc(C4CCCNC4)n3)c2c1 (stereo not shown) [Example 73, N-(3-(6-(piperidin-3-yl)pyridin-2-yl)pyrazolo[1,5-a]pyridin-5-yl)-2-(pyridin-2-yloxy)acetamide] | 11 to 100 nM |
| N#CCCC(=O)Nc1ccn2ncc(-c3cccc(C4CCCNC4)n3)c2c1 (stereo not shown) [Example 74, 3-cyano-N-(3-(6-(piperidin-3-yl)pyridin-2-yl)pyrazolo[1,5-a]pyridin-5-yl)propanamide] | 11 to 100 nM |
| N#CCCCC(=O)Nc1ccn2ncc(-c3cccc(C4CCCNC4)n3)c2c1 (stereo not shown) [Example 75, 4-cyano-N-(3-(6-(piperidin-3-yl)pyridin-2-yl)pyrazolo[1,5-a]pyridin-5-yl)butanamide] | 11 to 100 nM |
| O=C(COc1ccncc1)Nc1ccn2ncc(-c3cccc(C4CCCNC4)n3)c2c1 (stereo not shown) [Example 76, N-(3-(6-(piperidin-3-yl)pyridin-2-yl)pyrazolo[1,5-a]pyridin-5-yl)-2-(pyridin-4-yloxy)acetamide] | 11 to 100 nM |
| N#CCC(=O)Nc1ccn2ncc(-c3cccc(C4CCCNC4)n3)c2c1 (stereo not shown) [Example 77, 2-cyano-N-(3-(6-(piperidin-3-yl)pyridin-2-yl)pyrazolo[1,5-a]pyridin-5-yl)acetamide] | 11 to 100 nM |
| O=C(Cc1cccnc1)Nc1ccn2ncc(-c3cccc(C4CCCNC4)n3)c2c1 (stereo not shown) [Example 78, N-(3-(6-(piperidin-3-yl)pyridin-2-yl)pyrazolo[1,5-a]pyridin-5-yl)-2-(pyridin-3-yl)acetamide] | 11 to 100 nM |
| O=C(CNc1ccncc1)Nc1ccn2ncc(-c3cccc(C4CCCNC4)n3)c2c1 (stereo not shown) [Example 79, N-(3-(6-(piperidin-3-yl)pyridin-2-yl)pyrazolo[1,5-a]pyridin-5-yl)-2-(pyridin-4-ylamino)acetamide] | 11 to 100 nM |
| O=C(CNc1cccnc1)Nc1ccn2ncc(-c3cccc(C4CCCNC4)n3)c2c1 (stereo not shown) [Example 80, N-(3-(6-(piperidin-3-yl)pyridin-2-yl)pyrazolo[1,5-a]pyridin-5-yl)-2-(pyridin-3-ylamino)acetamide] | 11 to 100 nM |
| O=C(Cc1ccccn1)Nc1ccn2ncc(-c3cccc(C4CCCNC4)n3)c2c1 (stereo not shown) [Example 81, N-(3-(6-(piperidin-3-yl)pyridin-2-yl)pyrazolo[1,5-a]pyridin-5-yl)-2-(pyridin-2-yl)acetamide] | 11 to 100 nM |
